Data on one compound can be found in US20160139152A1, “Biosensor Using Cell That Expresses Chemosensory Receptor That Can Detect Sugar, And Alzheimer's Disease Diagnostic Apparatus Comprising Same” (KYUNGPOOK NATIONAL UNIVERSITY INDUSTRY-ACADEMIC COOPERATION …, priority 2013, published 2016).

Experiment [1] relates to S2 cells. The experiment in a line: Voltage change of ISFET biosensor (reference unit) with fixed S2 cells or general culture media. The class given is cell-based, Drosophila. The settings on record: FIG. 9. The text has this:
A cell line expressing Gr5a, which is one of drosophila gustatory receptors, was established with Drosophila Expression System (Invitrogen) using Drosophila Schneider 2 (S2) cells that cannot detect sugar (http://tools.invitrogen.com/content/sfs/manuals/des_man.pdf). A high concentration of a polycrystalline silicon thin film was deposited on a p-type silicon substrate through a low pressure chemical vapor deposition (LPCVD) vacuum equipment, and a source electrode and a drain electrode were formed spaced away from each other using lithographic and dry etching processes. An oxide layer was formed of a silicon dioxide (SiO2) layer, a hafnium oxide (HfO2) layer located on the silicon dioxide layer, and an aluminum oxide (Al2O3) layer located on the hafnium oxide layer, on the silicon layer. Rapid thermal treatment (at 850° C. for 30 seconds) was conducted under N2/O2 gas atmosphere, in order to activate the source electrode, the drain electrode, and the oxide layer, successively. After the rapid thermal treatment, a metal electrode was deposited by e-beam deposition. Thereafter, a wall structure was constructed with polydimethylsiloxane (PDMS), and an electrolyte was put into the wall structure, to prepare an ISFET based biosensor. A pair ISFET structure was developed capable of sensing by distinguishing the experimental group from the control group, as shown in FIG. 8. […]

Experiment [2] has as its target T1, Gr5a (Drosophila melanogaster, UniProt Q9W497).
T1 construct: After cloning Gr5a cDNA into a pAC vector; expressed in transfected cells
T1 sequence (Q9W497 1-444): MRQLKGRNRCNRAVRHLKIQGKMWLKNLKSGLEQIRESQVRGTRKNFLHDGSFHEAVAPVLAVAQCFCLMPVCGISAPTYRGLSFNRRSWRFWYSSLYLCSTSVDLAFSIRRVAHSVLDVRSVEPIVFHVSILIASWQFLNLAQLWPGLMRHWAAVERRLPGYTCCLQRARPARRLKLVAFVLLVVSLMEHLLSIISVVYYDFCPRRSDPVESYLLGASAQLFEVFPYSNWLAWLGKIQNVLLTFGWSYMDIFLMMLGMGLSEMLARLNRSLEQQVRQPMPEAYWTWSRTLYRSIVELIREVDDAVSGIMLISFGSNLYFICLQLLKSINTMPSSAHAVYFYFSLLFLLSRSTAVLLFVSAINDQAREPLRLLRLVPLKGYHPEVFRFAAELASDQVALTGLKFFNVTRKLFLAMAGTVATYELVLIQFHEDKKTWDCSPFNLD
The experiment in a line: Voltage change of ISFET biosensor (sensing unit) with fixed drosophila cell line expressing Gr5a. The format is cell-based. As to conditions: FIG. 9. The protocol: A cell line expressing Gr5a, which is one of drosophila gustatory receptors, was established with Drosophila Expression System (Invitrogen) using Drosophila Schneider 2 (S2) cells that cannot detect sugar (http://tools.invitrogen.com/content/sfs/manuals/des_man.pdf). After cloning Gr5a cDNA into a pAC vector, the S2 cell line was co-transfected with 2 μg of the cloned plasmid and 200 ng of pCoHygro which is a selection vector resistant to hygromycin, using polyethylenimine (PEI) in a Schneider medium (Invitrogen) containing no serum. A stable cell line expressing Gr5a was established by culturing in a medium containing hygromycin every 4 days, at least 6 times. A high concentration of a polycrystalline silicon thin film was deposited on a p-type silicon substrate through a low pressure chemical vapor deposition (LPCVD) vacuum equipment, and a source electrode and a drain electrode were formed spaced away from each other using lithographic and dry etching processes. An oxide layer was formed of a silicon dioxide (SiO2) layer, a hafnium oxide (HfO2) layer located on the silicon dioxide layer, and an aluminum oxide (Al2O3) layer located on the hafnium oxide layer, on the silicon layer. Rapid thermal treatment (at 850° C. for 30 seconds) was conducted under N2/O2 gas atmosphere, in order to activate the source electrode, the drain electrode, and the oxide layer, successively. […]

The structures appear in SMILES notation.

`OC[C@H]1O[C@H](O[C@H]2O[C@H](CO)[C@@H](O)[C@H](O)[C@H]2O)[C@H](O)[C@@H](O)[C@@H]1O` [trehalose]: the “change in voltage of the pair ISFET depending on the concentration of trehalose” value in experiment [1] is reported as “voltage changes little”; in experiment [2] it was “voltage remarkably increases”.
